This passage reports GI50 results from patent US10160755B2 (Plexxikon Inc., priority 2015, dated 2018).

The test deals with T1, BA/F3-FLT3-ITD + F691L cells (Homo sapiens, UniProt P36888, F691L, cells depend on it, form not given).
T1 sequence (P36888 1-993 F691L): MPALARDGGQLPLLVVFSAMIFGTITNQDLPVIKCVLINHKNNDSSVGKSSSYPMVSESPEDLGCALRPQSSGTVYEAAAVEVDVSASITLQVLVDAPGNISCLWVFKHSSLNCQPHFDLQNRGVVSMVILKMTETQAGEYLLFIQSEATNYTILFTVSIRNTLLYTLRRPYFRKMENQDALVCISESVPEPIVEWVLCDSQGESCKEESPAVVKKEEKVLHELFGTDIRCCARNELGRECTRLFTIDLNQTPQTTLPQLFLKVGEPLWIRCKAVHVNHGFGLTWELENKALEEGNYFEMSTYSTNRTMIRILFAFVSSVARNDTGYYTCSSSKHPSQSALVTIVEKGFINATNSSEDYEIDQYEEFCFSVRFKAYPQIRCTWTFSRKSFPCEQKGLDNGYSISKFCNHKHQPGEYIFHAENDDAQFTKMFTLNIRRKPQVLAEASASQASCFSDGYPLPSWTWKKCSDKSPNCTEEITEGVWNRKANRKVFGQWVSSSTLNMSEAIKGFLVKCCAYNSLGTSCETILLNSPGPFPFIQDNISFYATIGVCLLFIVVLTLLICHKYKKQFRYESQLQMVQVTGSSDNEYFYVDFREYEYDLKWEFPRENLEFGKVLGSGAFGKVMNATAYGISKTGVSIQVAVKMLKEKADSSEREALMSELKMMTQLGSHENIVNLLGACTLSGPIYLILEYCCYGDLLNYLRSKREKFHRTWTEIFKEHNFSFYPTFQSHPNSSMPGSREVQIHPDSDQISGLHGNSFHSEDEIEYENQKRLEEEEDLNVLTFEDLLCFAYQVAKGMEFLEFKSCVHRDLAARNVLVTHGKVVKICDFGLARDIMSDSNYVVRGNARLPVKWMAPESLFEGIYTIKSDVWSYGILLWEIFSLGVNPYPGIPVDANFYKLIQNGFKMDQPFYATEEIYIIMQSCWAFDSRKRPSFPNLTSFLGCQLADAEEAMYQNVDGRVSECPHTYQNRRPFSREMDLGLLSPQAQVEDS
The experiment in a line: BA/F3-FLT3-ITD + F691L cell proliferation assay (CellTiter-Glo). In kind it is cell-based, murine. The following applies: BaF3 FLT3 ITD/F691L cells; read-out: Cell Activity (IC50 μM) BaF3_FLT3_ITD/F691L. In a few lines:
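Murine BA/F3 cells transfected with full-length FLT3 carrying ITD plus D835Y or F691L, grown without IL-3 so growth depends on FLT3. Seeded at 1×10^4 cells/well and dosed with 8 points, 10 to 0.0046 μM, 0.2% DMSO, for three days at 37 °C. IC50 from CellTiter-Glo luminescence (ATP content).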
As for `COc1cc(C#Cc2cnc3[nH]cc(-c4ccc5ncn(C6CCCNC6)c5c4)c3n2)ccn1` (centres unmarked) [P-280, 2-((2-methoxypyridin-4-yl)ethynyl)-7-(1-(piperidin-3-yl)-1H-benzo[d]imidazol-6-yl)-5H-pyrrolo[2,3-b]pyrazine], the GI50 lay within 0.0001 to 1 µM. Regarding `c1cc(N2CCOCC2)ncc1-c1cnc2[nH]cc(-c3ccc4ncn(C5CCCNC5)c4c3)c2n1` (centres unmarked) [P-325, 4-[5-[7-[3-(3-piperidyl)benzimidazol-5-yl]-5H-pyrrolo[2,3-b]pyrazin-2-yl]-2-pyridyl]morpholine], the GI50 fell in the range of 0.0001 to 1 µM. As to `c1cc(-c2cnc3[nH]cc(-c4ccc5ncn(C6CCCNC6)c5c4)c3c2)cc(N2CCOCC2)c1` (centres unmarked) [P-317, 4-[3-[3-[3-(3-piperidyl)benzimidazol-5-yl]-1H-pyrrolo[2,3-b]pyridin-5-yl]phenyl]morpholine], the GI50 was in the range of 0.0001 to 1 µM. In the case of `CC(C)(C)n1cnc2ccc(-c3c[nH]c4ncc(-c5ccc(N6CCCCC6)cc5)nc34)cc21` [P-345, 7-(3-tert-butylbenzimidazol-5-yl)-2-[4-(1-piperidyl)phenyl]-5H-pyrrolo[2,3-b]pyrazine], the GI50 fell in the range of 0.0001 to 1 µM. The figure for `CN1CCN(c2ccc(-c3cnc4[nH]cc(-c5ccc6ncn(C7CCCNC7)c6c5)c4n3)cc2)CC1` (centres unmarked) [P-344, 2-[4-(4-methylpiperazin-1-yl)phenyl]-7-[3-(3-piperidyl)benzimidazol-5-yl]-5H-pyrrolo[2,3-b]pyrazine] is 0.0001 to 1 µM; for `CCN1CCN(c2ccc(-c3cnc4[nH]cc(-c5ccc6ncn(C7CCCNC7)c6c5)c4n3)cc2)CC1` (centres unmarked) [P-359, 2-[4-(4-ethylpiperazin-1-yl)phenyl]-7-[3-(3-piperidyl)benzimidazol-5-yl]-5H-pyrrolo[2,3-b]pyrazine] it is 0.0001 to 1 µM; for `O=S1(=O)CCCN1c1cc(-c2cnc3[nH]cc(-c4ccc5ncn(C6CCCNC6)c5c4)c3c2)ccn1` (centres unmarked) [P-311, 2-[4-[3-[3-(3-piperidyl)benzimidazol-5-yl]-1H-pyrrolo[2,3-b]pyridin-5-yl]-2-pyridyl]-1,2-thiazolidine 1,1-dioxide] it is 0.0001 to 1 µM. As to `c1cc(-c2cnc3[nH]cc(-c4ccc5ncn(C6CCCNC6)c5c4)c3n2)cc(N2CCCCC2)n1` (centres unmarked) [P-339, 7-[3-(3-piperidyl)benzimidazol-5-yl]-2-[2-(1-piperidyl)-4-pyridyl]-5H-pyrrolo[2,3-b]pyrazine], the GI50 fell in the range of 0.0001 to 1 µM. For the molecule `Cc1ncc(C#Cc2cnc3[nH]cc(-c4ccc5ncn(C(C)(C)C)c5c4)c3n2)cn1` [P-284, 7-(3-tert-butylbenzimidazol-5-yl)-2-[2-(2-methylpyrimidin-5-yl)ethynyl]-5H-pyrrolo[2,3-b]pyrazine], the GI50 lay within 0.0001 to 1 µM.

For `FC(F)(F)Cn1cc(-c2cnc3[nH]cc(-c4ccc5ncn(C6CCCNC6)c5c4)c3c2)cn1` (centres unmarked) [P-275, 1-(3-piperidyl)-6-[5-[1-(2,2,2-trifluoroethyl)pyrazol-4-yl]-1H-pyrrolo[2,3-b]pyridin-3-yl]benzimidazole], the GI50 is 0.0001 to 1 µM.

With `COc1cc(-c2cnc3[nH]cc(-c4ccc5ncn(C6(C(F)(F)F)CC6)c5c4)c3n2)ccn1` [P-312, 2-(2-methoxy-4-pyridyl)-7-[3-[1-(trifluoromethyl)cyclopropyl]benzimidazol-5-yl]-5H-pyrrolo[2,3-b]pyrazine], the GI50 is 0.0001 to 1 µM.

`CCN1CCN(c2cc(-c3cnc4[nH]cc(-c5ccc6ncn(C(C)(C)C)c6c5)c4n3)ccn2)CC1` [P-328, 7-(3-tert-butylbenzimidazol-5-yl)-2-[2-(4-ethylpiperazin-1-yl)-4-pyridyl]-5H-pyrrolo[2,3-b]pyrazine]: the GI50 was in the range of 0.0001 to 1 µM. Consider `CC(C)(C)n1cnc2ccc(-c3c[nH]c4nnc(Cl)cc34)cc21` [P-314, 5-(3-tert-butylbenzimidazol-5-yl)-3-chloro-7H-pyrrolo[2,3-c]pyridazine], for which the GI50 is 0.0001 to 1 µM.

Take `COc1cc(-c2cnc3[nH]cc(-c4ccc5ncn(C(C)(C)C)c5c4)c3c2)c(OC)nn1` [P-292, 1-tert-butyl-6-[5-(3,6-dimethoxypyridazin-4-yl)-1H-pyrrolo[2,3-b]pyridin-3-yl]benzimidazole]: the GI50 is 0.0001 to 1 µM. As for `O=S1(=O)CCCN1c1cc(-c2cnc3[nH]cc(-c4ccc5ncn(C6CCCNC6)c5c4)c3n2)ccn1` (centres unmarked) [P-295, 2-[4-[7-[3-(3-piperidyl)benzimidazol-5-yl]-5H-pyrrolo[2,3-b]pyrazin-2-yl]-2-pyridyl]-1,2-thiazolidine 1,1-dioxide], the GI50 is 0.0001 to 1 µM. On to `CCN1CCN(c2ccc(-c3cnc4[nH]cc(-c5ccc6ncn(C7CCCNC7)c6c5)c4n3)cn2)CC1` (centres unmarked) [P-366, 2-[6-(4-ethylpiperazin-1-yl)-3-pyridyl]-7-[3-(3-piperidyl)benzimidazol-5-yl]-5H-pyrrolo[2,3-b]pyrazine], for which the GI50 was 0.0001 to 1 µM. For the molecule `Cc1ncc(-c2cnc3[nH]cc(-c4ccc5ncn(C(C)(C)C)c5c4)c3n2)cn1` [P-289, 7-(3-tert-butylbenzimidazol-5-yl)-2-(2-methylpyrimidin-5-yl)-5H-pyrrolo[2,3-b]pyrazine], the GI50 is 0.0001 to 1 µM. Regarding `Cn1cnc2ccc(-c3c[nH]c4nnc(Cl)cc34)cc21` [P-313, 3-chloro-5-(3-methylbenzimidazol-5-yl)-7H-pyrrolo[2,3-c]pyridazine], the GI50 lay within 0.0001 to 1 µM. `c1cc(N2CCOCC2)ncc1-c1cnc2[nH]cc(-c3ccc4ncn(C5CCCNC5)c4c3)c2c1` (centres unmarked) [P-321, 4-[5-[3-[3-(3-piperidyl)benzimidazol-5-yl]-1H-pyrrolo[2,3-b]pyridin-5-yl]-2-pyridyl]morpholine]: the GI50 lay in the range of 0.0001 to 1 µM. `CCN1CCN(c2cc(-c3cnc4[nH]cc(-c5ccc6ncn(C7CCCNC7)c6c5)c4n3)ccn2)CC1` (centres unmarked) [P-327, 2-[2-(4-ethylpiperazin-1-yl)-4-pyridyl]-7-[3-(3-piperidyl)benzimidazol-5-yl]-5H-pyrrolo[2,3-b]pyrazine]: the GI50 was in the range of 0.0001 to 1 µM. The figure for `Cc1cc(C#Cc2cnc3[nH]cc(-c4ccc5ncn(C6CCCNC6)c5c4)c3n2)cc(C)n1` (centres unmarked) [P-283, 2-[2-(2,6-dimethyl-4-pyridyl)ethynyl]-7-[3-(3-piperidyl)benzimidazol-5-yl]-5H-pyrrolo[2,3-b]pyrazine] is 0.0001 to 1 µM. To `CC(C)(C)n1cnc2ccc(-c3c[nH]c4ncc(-c5ccnc(N6CCCCC6)c5)nc34)cc21` [P-338, 7-(3-tert-butylbenzimidazol-5-yl)-2-[2-(1-piperidyl)-4-pyridyl]-5H-pyrrolo[2,3-b]pyrazine] belongs 0.0001 to 1 µM; to `c1nc(N2CCOCC2)ncc1-c1cnc2[nH]cc(-c3ccc4ncn(C5CCCNC5)c4c3)c2c1` (centres unmarked) [P-277, 4-[5-[3-[3-(3-piperidyl)benzimidazol-5-yl]-1H-pyrrolo[2,3-b]pyridin-5-yl]pyrimidin-2-yl]morpholine], 0.0001 to 1 µM. With `Cc1ncc(C#Cc2cnc3[nH]cc(-c4ccc5ncn(C6CCCNC6)c5c4)c3n2)cn1` (centres unmarked) [P-285, 2-[2-(2-methylpyrimidin-5-yl)ethynyl]-7-[3-(3-piperidyl)benzimidazol-5-yl]-5H-pyrrolo[2,3-b]pyrazine], the GI50 lay in the range of 0.0001 to 1 µM.

In the case of `COc1cc(C#Cc2cnc3[nH]cc(-c4ccc5ncn(C(C)(C)C)c5c4)c3n2)ccn1` [P-279, 7-(1-(tert-butyl)-1H-benzo[d]imidazol-6-yl)-2-((2-methoxypyridin-4-yl)ethynyl)-5H-pyrrolo[2,3-b]pyrazine], the GI50 was 0.0001 to 1 µM.

Regarding `O=S1(=O)CCCCN1c1cc(-c2cnc3[nH]cc(-c4ccc5ncn(C6CCCNC6)c5c4)c3n2)ccn1` (centres unmarked) [P-310, 2-[4-[7-[3-(3-piperidyl)benzimidazol-5-yl]-5H-pyrrolo[2,3-b]pyrazin-2-yl]-2-pyridyl]thiazinane 1,1-dioxide], the GI50 was in the range of 0.0001 to 1 µM. Turning to `CC(C)(C)n1cnc2ccc(-c3c[nH]c4ncc(-c5ccc(N6CCCS6(=O)=O)cc5)cc34)cc21` [P-320, 2-[4-[3-(3-tert-butylbenzimidazol-5-yl)-1H-pyrrolo[2,3-b]pyridin-5-yl]phenyl]-1,2-thiazolidine 1,1-dioxide], the GI50 lay in the range of 0.0001 to 1 µM. As to `CC(C)(C)n1cnc2ccc(-c3c[nH]c4ncc(-c5ccnc(N6CCCS6(=O)=O)c5)nc34)cc21` [P-294, 2-[4-[7-(3-tert-butylbenzimidazol-5-yl)-5H-pyrrolo[2,3-b]pyrazin-2-yl]-2-pyridyl]-1,2-thiazolidine 1,1-dioxide], the GI50 fell in the range of 0.0001 to 1 µM. For `CN1CCN(c2cccc(-c3cnc4[nH]cc(-c5ccc6ncn(C(C)(C)C)c6c5)c4n3)c2)CC1` [P-331, 7-(3-tert-butylbenzimidazol-5-yl)-2-[3-(4-methylpiperazin-1-yl)phenyl]-5H-pyrrolo[2,3-b]pyrazine], the GI50 was in the range of 0.0001 to 1 µM.
